Where “and” joins values, the source holds several entries; their conditions need not be identical. Equal values may be shown once. Inconclusive results and toxic doses are left out. The calls were made as follows: active = survival T/C of 150% or more; inactive = T/C below 125% in these data.
System: P388 leukemia ip, CD2F1 mice, survival T/C
Experiment: NCI In Vivo Anticancer Drug Screen. Data for tumor model P388 Leukemia (intraperitoneal) in CD2F1 (CDF1) mice
Conditions: endpoint: median survival time, higher = longer survival
How it was run: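 Mice carrying the transplanted tumor received test compound or vehicle. Survival was recorded in each group, and the value is the treated-group measurement divided by that of the vehicle-treated control group.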

[1] = dose: 100.0 mg/kg/injection, schedule: Q04DX002 (ip), vehicle: saline with Tween-80
[2] = dose: 200.0 mg/kg/injection, schedule: Q04DX002 (ip), vehicle: saline with Tween-80
[3] = dose: 50.0 mg/kg/injection, schedule: Q01DX009 (ip), vehicle: saline
[4] = dose: 100.0 mg/kg/injection, schedule: Q01DX009 (ip), vehicle: saline
[5] = dose: 200.0 mg/kg/injection, schedule: Q01DX009 (ip), vehicle: saline
[6] = dose: 50.0 mg/kg/injection, schedule: Q01DX009 (ip), vehicle: Klucel (hydroxypropylcellulose) (HPC)
[7] = dose: 100.0 mg/kg/injection, schedule: Q01DX009 (ip), vehicle: Klucel (hydroxypropylcellulose) (HPC)
[8] = dose: 50.0 mg/kg/injection, schedule: Q01DX005 (ip), vehicle: saline
[9] = dose: 100.0 mg/kg/injection, schedule: Q01DX005 (ip), vehicle: saline
[10] = dose: 200.0 mg/kg/injection, schedule: Q01DX005 (ip), vehicle: saline
[11] = dose: 60.0 mg/kg/injection, schedule: Q01DX005 (ip), vehicle: Klucel (hydroxypropylcellulose) (HPC)
[12] = dose: 120.0 mg/kg/injection, schedule: Q01DX005 (ip), vehicle: Klucel (hydroxypropylcellulose) (HPC)
[13] = dose: 240.0 mg/kg/injection, schedule: Q01DX005 (ip), vehicle: Klucel (hydroxypropylcellulose) (HPC)
[14] = dose: 60.0 mg/kg/injection, schedule: Q01DX005 (ip), vehicle: saline with Tween-80
[15] = dose: 120.0 mg/kg/injection, schedule: Q01DX005 (ip), vehicle: saline with Tween-80
[16] = dose: 240.0 mg/kg/injection, schedule: Q01DX005 (ip), vehicle: saline with Tween-80
[17] = dose: 50.0 mg/kg/injection, schedule: Q01DX005 (ip), vehicle: saline with Tween-80
[18] = dose: 100.0 mg/kg/injection, schedule: Q01DX005 (ip), vehicle: saline with Tween-80
[19] = dose: 200.0 mg/kg/injection, schedule: Q01DX005 (ip), vehicle: saline with Tween-80

Measured: T/C

NC(=S)N/N=C/c1nc2ccccc2c(=O)n1-c1ccc(Cl)cc1
inactive: [1] 104 % of control | [2] 95 % of control | dose: 400.0 mg/kg/injection, schedule: Q04DX002 (ip), vehicle: saline with Tween-80 98 % of control

COc1ccc(OC)c(C2N(C)CCCN2C)c1
inactive: dose: 6.25 mg/kg/injection, schedule: Q01DX009 (ip), vehicle: saline sonified 95 % of control | dose: 12.5 mg/kg/injection, schedule: Q01DX009 (ip), vehicle: saline sonified 90 % of control | dose: 25.0 mg/kg/injection, schedule: Q01DX009 (ip), vehicle: saline sonified 100 % of control

COc1ccc2nc3cc(Cl)ccc3c(Nc3ccccc3NS(C)(=O)=O)c2n1
inactive: dose: 12.5 mg/kg/injection, schedule: Q01DX009 (ip), vehicle: other 103 % of control | dose: 25.0 mg/kg/injection, schedule: Q01DX009 (ip), vehicle: other 105 % of control | dose: 50.0 mg/kg/injection, schedule: Q01DX009 (ip), vehicle: other 105 % of control | dose: 100.0 mg/kg/injection, schedule: Q01DX009 (ip), vehicle: other 111 % of control and 112 % of control | dose: 200.0 mg/kg/injection, schedule: Q01DX009 (ip), vehicle: other 106 % of control

CCN(CC)C(=O)C1CN2CCc3cc(OC)c(OC)cc3C2CC1O (stereo unspecified)
inactive: dose: 50.0 mg/kg/injection, schedule: Q01DX005 (ip), vehicle: Klucel (hydroxypropylcellulose) (HPC) 104 % of control and 108 % of control | dose: 100.0 mg/kg/injection, schedule: Q01DX005 (ip), vehicle: Klucel (hydroxypropylcellulose) (HPC) 106 % of control and 109 % of control | dose: 200.0 mg/kg/injection, schedule: Q01DX005 (ip), vehicle: Klucel (hydroxypropylcellulose) (HPC) 123 % of control

CC(Nc1ncnc2c1CCc1ccccc1-2)C(=O)O (stereo unspecified)
inactive: [1] 100 % of control | [2] 94 % of control

CN(C)CCCNCC#CCNCCCN(C)C
inactive: [3] 100 % of control | [4] 105 % of control | [5] 105 % of control

O=C(CCC1(CCC(=O)c2ccccc2)c2ccccc2C(=O)c2ccccc21)c1ccccc1
inactive: dose: 25.0 mg/kg/injection, schedule: Q04DX003 (ip), vehicle: Klucel (hydroxypropylcellulose) (HPC) 93 % of control | dose: 50.0 mg/kg/injection, schedule: Q04DX003 (ip), vehicle: Klucel (hydroxypropylcellulose) (HPC) 108 % of control | dose: 100.0 mg/kg/injection, schedule: Q04DX003 (ip), vehicle: Klucel (hydroxypropylcellulose) (HPC) 86 % of control | dose: 200.0 mg/kg/injection, schedule: Q04DX003 (ip), vehicle: Klucel (hydroxypropylcellulose) (HPC) 91 % of control

O=CC1C(=O)NC(=O)NC1=O
inactive: dose: 25.0 mg/kg/injection, schedule: Q04DX003 (ip), vehicle: saline 112 % of control | dose: 50.0 mg/kg/injection, schedule: Q04DX003 (ip), vehicle: saline 100 % of control | dose: 100.0 mg/kg/injection, schedule: Q04DX003 (ip), vehicle: saline 114 % of control

CCCCN(CCCC)C(Cl)=NCCC
inactive: [6] 94 % of control | [7] 93 % of control

Cc1ccc(O)c[n+]1[O-]
inactive: dose: 25.0 mg/kg/injection, schedule: Q01DX009 (ip), vehicle: saline 101 % of control | [3] 100 % of control and 105 % of control | [4] 102 % of control and 97 % of control | [5] 105 % of control and 117 % of control | dose: 400.0 mg/kg/injection, schedule: Q01DX009 (ip), vehicle: saline 108 % of control and 109 % of control

CN1CCCC1CN1CCCC1 (stereo unspecified)
inactive: [8] 107 % of control | [9] 102 % of control | [10] 98 % of control

Cc1ccc(-n2c(=O)nc([O-])[n+]3ccccc23)cc1
inactive: [11] 99 % of control | [12] 98 % of control | [13] 96 % of control

CC1(C)COC(CCCCCO)=N1
inactive: dose: 50.0 mg/kg/injection, schedule: Q01DX009 (ip), vehicle: saline with Tween-80 103 % of control | dose: 100.0 mg/kg/injection, schedule: Q01DX009 (ip), vehicle: saline with Tween-80 97 % of control | dose: 200.0 mg/kg/injection, schedule: Q01DX009 (ip), vehicle: saline with Tween-80 92 % of control

O=CNc1ccc(Cl)cc1C(=O)c1ccccc1
inactive: [6] 108 % of control | [7] 100 % of control | dose: 200.0 mg/kg/injection, schedule: Q01DX009 (ip), vehicle: Klucel (hydroxypropylcellulose) (HPC) 95 % of control

CS(=O)(=O)OCC(Br)C(Br)COS(C)(=O)=O (stereo unspecified)
inactive: [6] 107 % of control | [7] 87 % of control

Cc1cc2c(cc1C)NC1=C(N2)OC(c2c3ccccc3cc3ccccc23)C1=O (stereo unspecified)
inactive: [11] 92 % of control | [12] 88 % of control | [13] 90 % of control

Cn1c(=O)oc2c(Br)cc(Br)cc21
inactive: dose: 50.0 mg/kg/injection, schedule: Q04DX002 (ip), vehicle: Klucel (hydroxypropylcellulose) (HPC) 101 % of control | dose: 100.0 mg/kg/injection, schedule: Q04DX002 (ip), vehicle: Klucel (hydroxypropylcellulose) (HPC) 104 % of control | dose: 200.0 mg/kg/injection, schedule: Q04DX002 (ip), vehicle: Klucel (hydroxypropylcellulose) (HPC) 101 % of control

Cc1n[nH]c(=O)c2ccccc12
inactive: dose: 100.0 mg/kg/injection, schedule: Q04DX003 (ip), vehicle: saline with Tween-80 91 % of control | dose: 200.0 mg/kg/injection, schedule: Q04DX003 (ip), vehicle: saline with Tween-80 99 % of control | dose: 400.0 mg/kg/injection, schedule: Q04DX003 (ip), vehicle: saline with Tween-80 107 % of control

CCOC(=O)c1c(-c2ccccc2)noc1N
inactive: dose: 25.0 mg/kg/injection, schedule: Q01DX005 (ip), vehicle: saline 100 % of control | [8] 100 % of control | [9] 98 % of control | [10] 100 % of control | dose: 400.0 mg/kg/injection, schedule: Q01DX005 (ip), vehicle: saline 104 % of control

OC1c2cccn2-c2cc(Cl)ccc2SC1c1ccccc1 (stereo unspecified)
inactive: [14] 99 % of control | [15] 101 % of control | [16] 100 % of control

Cc1cc(C)c(C#N)c(NN)n1
inactive: dose: 6.25 mg/kg/injection, schedule: Q01DX005 (ip), vehicle: saline with Tween-80 99 % of control | dose: 12.5 mg/kg/injection, schedule: Q01DX005 (ip), vehicle: saline with Tween-80 103 % of control

COc1cc(C/C(=C/c2ccc(OC)c3occc23)[N+](=O)[O-])cc(OC)c1OC
inactive: [17] 98 % of control | [18] 107 % of control | [19] 113 % of control

CC1=CC[C@H]2C(=O)N(CCN(C)C)C(=O)[C@H]2C1
inactive: [8] 100 % of control | [9] 100 % of control | [10] 98 % of control

COC(=O)C1(C)CCCC2(C)c3cc(OC)ccc3C3(CC12)OCCS3 (stereo unspecified)
inactive: dose: 2.5 mg/kg/injection, schedule: Q01DX009 (ip), vehicle: saline with Tween-80 100 % of control | dose: 5.0 mg/kg/injection, schedule: Q01DX009 (ip), vehicle: saline with Tween-80 98 % of control | dose: 10.0 mg/kg/injection, schedule: Q01DX009 (ip), vehicle: saline with Tween-80 92 % of control

CC(=O)CCC12CCC(=O)N1Cc1ccccc1C2=O (stereo unspecified)
inactive: [14] 106 % of control | [15] 123 % of control | [16] 106 % of control

CCCCNC(=O)C(N)CON (stereo unspecified)
inactive: [8] 106 % of control | [9] 113 % of control | [10] 106 % of control

Clc1ccccc1-n1cccc1/C=N\N=C/c1cccn1-c1ccccc1Cl
inactive: [17] 107 % of control | [18] 110 % of control and 86 % of control | [19] 121 % of control and 86 % of control and 90 % of control

CC1C(=O)C=C(c2ccccc2)C1(O)c1ccccc1 (stereo unspecified)
inactive: dose: 100.0 mg/kg/injection, schedule: Q01DX001 (ip), vehicle: saline with Tween-80 104 % of control | dose: 200.0 mg/kg/injection, schedule: Q01DX001 (ip), vehicle: saline with Tween-80 103 % of control
